Experimental data reported in patent publication US20240317706A1, “COMPOUNDS THAT MEDIATE PROTEIN DEGRADATION AND METHODS OF USE THEREOF” (Monte Rosa Therapeutics, Inc., priority 2021, published 2024).

What was measured:
CDK2 = biological target: T1, CDK2 (Homo sapiens, UniProt P24941); assay: HiBiT assay (CDK2 degradation); type: cell-based; conditions: HEK293 clonal line with CRISPR KI HiBiT tag on CDK2, 24 hours, HiBiT Lysis Reagent
T1 construct: HEK293 clonal lines with CRISPR KI HiBiT tag on CDK2 proteins; host or cells: HEK293 clonal line, CRISPR knock-in HiBiT-CDK2, stably expressing LgBiT
Method: HEK293 clonal lines with CRISPR KI HiBiT tag on CDK2 proteins and stably expressing LgBiT protein were obtained from Promega (Madison, WI). Cells were plated at 5000 cells per well using Multiflo (BioTek) in 384-well white solid bottom plates (Corning, 3570BC) in 25 ul volume in DMEM media (DMEM, high glucose, HEPES, no phenol red (ThermoFisher Scientific, 21063029)) containing 10% FBS (Corning, 35-075-CV), 1% Penicillin/Streptomycin (ThermoFisher Scientific, 15140-122). Cells were incubated for 16 hours at 37° C., 5% CO2. 75 nL of a compound at 30 μM were dosed into the plate using an Echo® 650 liquid handler (Labcyte). Cells were incubated at 37° C., 5% CO2 for 24 hours. 5 ul of HiBiT Lysis Reagent (Promega, N3030) is added using Combi Multidrop (ThermoFisher Scientific), plates are incubated for 15′ at 37° C., 5% CO2 and then signal was read on a Pherastar FSX using “LUM plus” optic module.
Analysis was performed in Scinamic (Scinamic, Cambridge, MA). Luminescence response (R) was calculated by the formula: response=100*(S−N)/(P−N) where S is the signal of the well, N and P the mean negative and positive control values respectively of the same plate. The luminescence response was then fitted in Scinamic using a 3-parameter agonist logistic fit (hillslope=1, EC50>0, top/bottom unconstrained).

CRBN-DDB1 = CRBN-DDB1 (Homo sapiens, UniProt Q96SW2); assay: Compound binding to CRBN by HTRF assay; conditions: CRBN-DDB1 2.5 nM, Cy5-Thalidomide 100 nM, 30 min; Ki from geometric mean IC50 by Cheng-Prustoff transformation
In short: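 HTRF displacement of Cy5-thalidomide probe (100 nM) from His-CRBN-DDB1 (2.5 nM) with anti-His terbium cryptate, in HEPES/NaCl/TCEP/EDTA/Tween20 buffer. 10-point 1:3 compound series, 30 min at ambient temperature; signal normalised to DMSO and lenalidomide controls, IC50 fitted and Ki derived by Cheng-Prusoff.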

Sequence of CRBN-DDB1 (Q96SW2 whole entry): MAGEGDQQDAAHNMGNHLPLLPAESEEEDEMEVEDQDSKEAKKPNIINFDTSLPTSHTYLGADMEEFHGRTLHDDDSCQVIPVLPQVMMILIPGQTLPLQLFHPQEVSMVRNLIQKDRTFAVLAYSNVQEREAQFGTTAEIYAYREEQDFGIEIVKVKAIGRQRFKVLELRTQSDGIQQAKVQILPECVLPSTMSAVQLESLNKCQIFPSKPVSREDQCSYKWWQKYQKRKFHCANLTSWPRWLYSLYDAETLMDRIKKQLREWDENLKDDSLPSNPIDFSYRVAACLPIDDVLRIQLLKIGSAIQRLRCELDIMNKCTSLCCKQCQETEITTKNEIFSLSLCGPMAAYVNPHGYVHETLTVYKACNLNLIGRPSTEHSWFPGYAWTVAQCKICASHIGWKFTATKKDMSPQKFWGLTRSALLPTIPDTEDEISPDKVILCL
Sequence of CRBN-DDB1 (Q16531 whole entry partner): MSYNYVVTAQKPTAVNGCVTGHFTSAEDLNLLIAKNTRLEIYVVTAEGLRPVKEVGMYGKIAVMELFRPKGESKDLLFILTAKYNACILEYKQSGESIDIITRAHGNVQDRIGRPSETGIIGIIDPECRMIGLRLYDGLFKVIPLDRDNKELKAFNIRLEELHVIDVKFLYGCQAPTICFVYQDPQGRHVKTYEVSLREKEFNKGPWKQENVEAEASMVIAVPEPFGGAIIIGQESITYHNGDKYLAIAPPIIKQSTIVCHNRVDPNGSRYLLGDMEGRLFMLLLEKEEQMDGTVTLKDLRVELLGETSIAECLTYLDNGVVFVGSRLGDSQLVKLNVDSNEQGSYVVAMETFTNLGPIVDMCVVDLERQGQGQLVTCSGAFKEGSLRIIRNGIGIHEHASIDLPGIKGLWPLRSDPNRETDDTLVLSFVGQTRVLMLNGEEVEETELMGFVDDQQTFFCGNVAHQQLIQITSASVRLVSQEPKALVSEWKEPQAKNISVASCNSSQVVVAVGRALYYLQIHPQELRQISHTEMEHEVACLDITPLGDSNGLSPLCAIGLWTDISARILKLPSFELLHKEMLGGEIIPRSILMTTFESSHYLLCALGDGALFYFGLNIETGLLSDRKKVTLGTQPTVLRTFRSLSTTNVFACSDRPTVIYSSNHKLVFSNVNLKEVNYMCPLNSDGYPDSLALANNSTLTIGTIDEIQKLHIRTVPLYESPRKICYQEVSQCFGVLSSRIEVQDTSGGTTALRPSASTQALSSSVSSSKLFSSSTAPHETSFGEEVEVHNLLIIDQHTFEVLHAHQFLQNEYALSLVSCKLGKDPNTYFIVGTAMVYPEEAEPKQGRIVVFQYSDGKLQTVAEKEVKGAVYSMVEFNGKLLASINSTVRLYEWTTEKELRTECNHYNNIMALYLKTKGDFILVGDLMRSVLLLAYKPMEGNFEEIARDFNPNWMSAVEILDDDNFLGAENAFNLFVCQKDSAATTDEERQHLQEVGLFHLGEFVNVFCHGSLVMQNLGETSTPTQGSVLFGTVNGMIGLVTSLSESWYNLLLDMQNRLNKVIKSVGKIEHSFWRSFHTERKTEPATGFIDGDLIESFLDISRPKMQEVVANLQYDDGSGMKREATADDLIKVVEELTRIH

| SMILES | Dmax (CDK2) [%] | Ki (CRBN-DDB1) [µM] |
| --- | --- | --- |
| O=C1CCC(N2Cc3ccc(CNC(=O)OCC4CC5(CCC5)C4)cc3C2=O)C(=O)N1 (stereo not drawn) [Compound 2, spiro[3.3]heptan-2-ylmethyl ((2-(2,6-dioxopiperidin-3-yl)-3-oxoisoindolin-5-yl)methyl)carbamate] | 50 to 80 | 0.1 to 1 |
| CN1CCC(COC(=O)NCc2ccc3c(c2)C(=O)N(C2CCC(=O)NC2=O)C3)CC1 (stereo not drawn) [Compound 34, (1-methylpiperidin-4-yl)methyl N-{[2-(2,6-dioxopiperidin-3-yl)-3-oxo-2,3-dihydro-1H-isoindol-5-yl]methyl}carbamate] | ≤ 10 | 0.1 to 1 |
| O=C1CCC(N2Cc3ccc(CNC(=O)OCC4CCCCO4)cc3C2=O)C(=O)N1 (stereo not drawn) [Compound 41, (oxan-2-yl)methyl N-{[2-(2,6-dioxopiperidin-3-yl)-3-oxo-2,3-dihydro-1H-isoindol-5-yl]methyl}carbamate] | 10 to 50 | 0.1 to 1 |
| O=C1CCC(N2Cc3ccc(CNC(=O)OC4CC5(CCC5)C4)cc3C2=O)C(=O)N1 (stereo not drawn) [Compound 3, spiro[3.3]heptan-2-yl ((2-(2,6-dioxopiperidin-3-yl)-3-oxoisoindolin-5-yl)methyl)carbamate] | 10 to 50 | 0.1 to 1 |
| CC1(C)CCC(OC(=O)NCc2ccc3c(c2)C(=O)N(C2CCC(=O)NC2=O)C3)CC1 (stereo not drawn) [Compound 1, 4,4-dimethylcyclohexyl ((2-(2,6-dioxopiperidin-3-yl)-3-oxoisoindolin-5-yl)methyl)carbamate] | 10 to 50 | 0.1 to 1 |
| O=C1CCC(N2Cc3ccc(CNC(=O)OCCOC4COC4)cc3C2=O)C(=O)N1 (stereo not drawn) [Compound 33, 2-(oxetan-3-yloxy)ethyl N-{[2-(2,6-dioxopiperidin-3-yl)-3-oxo-2,3-dihydro-1H-isoindol-5-yl]methyl}carbamate] | 10 to 50 | 0.1 to 1 |
| CC1(COC(=O)NCc2ccc3c(c2)C(=O)N(C2CCC(=O)NC2=O)C3)COC1 (stereo not drawn) [Compound 16, (3-methyloxetan-3-yl)methyl N-{[2-(2,6-dioxopiperidin-3-yl)-3-oxo-2,3-dihydro-1H-isoindol-5-yl]methyl}carbamate] | ≤ 10 | 0.1 to 1 |
| CN1CCC(OC(=O)NCc2ccc3c(c2)C(=O)N(C2CCC(=O)NC2=O)C3)C1 (stereo not drawn) [Compound 40, 1-methylpyrrolidin-3-yl N-{[2-(2,6-dioxopiperidin-3-yl)-3-oxo-2,3-dihydro-1H-isoindol-5-yl]methyl}carbamate] | ≤ 10 | 0.1 to 1 |
| CC(C)C1CCC(OC(=O)NCc2ccc3c(c2)C(=O)N(C2CCC(=O)NC2=O)C3)CC1 (stereo not drawn) [Compound 89, 4-(propan-2-yl)cyclohexyl N-{[2-(2,6-dioxopiperidin-3-yl)-3-oxo-2,3-dihydro-1H-isoindol-5-yl]methyl}carbamate] | 50 to 80 | 0.1 to 1 |
| O=C1CCC(N2Cc3ccc(CNC(=O)OC4CCc5ccccc5C4)cc3C2=O)C(=O)N1 (stereo not drawn) [Compound 17, 1,2,3,4-tetrahydronaphthalen-2-yl N-{[2-(2,6-dioxopiperidin-3-yl)-3-oxo-2,3-dihydro-1H-isoindol-5-yl]methyl}carbamate] | 10 to 50 | 0.1 to 1 |
| CC1(COC(=O)NCc2ccc3c(c2)C(=O)N(C2CCC(=O)NC2=O)C3)CCCO1 (stereo not drawn) [Compound 22, (2-methyloxolan-2-yl)methyl N-{[2-(2,6-dioxopiperidin-3-yl)-3-oxo-2,3-dihydro-1H-isoindol-5-yl]methyl}carbamate] | ≤ 10 | 0.1 to 1 |
| O=C1CCC(N2Cc3ccc(CNC(=O)OCCOC4CC4)cc3C2=O)C(=O)N1 (stereo not drawn) [Compound 21, 2-cyclopropoxyethyl N-{[2-(2,6-dioxopiperidin-3-yl)-3-oxo-2,3-dihydro-1H-isoindol-5-yl]methyl}carbamate] | ≤ 10 | 0.1 to 1 |
| CC1(C)CC(OC(=O)NCc2ccc3c(c2)C(=O)N(C2CCC(=O)NC2=O)C3)C1 (stereo not drawn) [Compound 31, 3,3-dimethylcyclobutyl N-{[2-(2,6-dioxopiperidin-3-yl)-3-oxo-2,3-dihydro-1H-isoindol-5-yl]methyl}carbamate] | 10 to 50 | 0.1 to 1 |
| C[C@H](OC(=O)NCc1ccc2c(c1)C(=O)N(C1CCC(=O)NC1=O)C2)C1CC1 (stereo partly drawn) [Compound 28, (1S)-1-cyclopropylethyl N-{[2-(2,6-dioxopiperidin-3-yl)-3-oxo-2,3-dihydro-1H-isoindol-5-yl]methyl}carbamate] | 10 to 50 | 0.1 to 1 |
| C[C@H]1CCC[C@@H]1OC(=O)NCc1ccc2c(c1)C(=O)N(C1CCC(=O)NC1=O)C2 (stereo partly drawn) [Compound 32, (1S,2S)-2-methylcyclopentyl N-{[2-(2,6-dioxopiperidin-3-yl)-3-oxo-2,3-dihydro-1H-isoindol-5-yl]methyl}carbamate] | 10 to 50 | 0.1 to 1 |
| O=C1CCC(N2Cc3ccc(CNC(=O)OC4CC4)cc3C2=O)C(=O)N1 (stereo not drawn) [Compound 14, cyclopropyl N-{[2-(2,6-dioxopiperidin-3-yl)-3-oxo-2,3-dihydro-1H-isoindol-5-yl]methyl}carbamate] | 10 to 50 | 0.1 to 1 |

Further lines, results first:

| Dmax (CDK2) [%] | Ki (CRBN-DDB1) [µM] | SMILES |
| --- | --- | --- |
| 10 to 50 | ≤ 0.1 | O=C1CCC(N2Cc3ccc(CNC(=O)O[C@@H]4CCC[C@H]4c4ccccc4)cc3C2=O)C(=O)N1 (mixture of isomers) [Compound 26, rac-(1R,2S)-2-phenylcyclopentyl N-{[2-(2,6-dioxopiperidin-3-yl)-3-oxo-2,3-dihydro-1H-isoindol-5-yl]methyl}carbamate] |
| 10 to 50 | 0.1 to 1 | O=C1CCC(N2Cc3ccc(CNC(=O)OCC4CC45CCC(F)(F)CC5)cc3C2=O)C(=O)N1 (stereo not drawn) [Compound 95, {6,6-difluorospiro[2.5]octan-1-yl}methyl N-{[2-(2,6-dioxopiperidin-3-yl)-3-oxo-2,3-dihydro-1H-isoindol-5-yl]methyl}carbamate] |
| 10 to 50 | 0.1 to 1 | O=C1CCC(N2Cc3ccc(CNC(=O)OCCC4CC(F)(F)C4)cc3C2=O)C(=O)N1 (stereo not drawn) [Compound 47, 2-(3,3-difluorocyclobutyl)ethyl N-{[2-(2,6-dioxopiperidin-3-yl)-3-oxo-2,3-dihydro-1H-isoindol-5-yl]methyl}carbamate] |
| ≤ 10 | 0.1 to 1 | O=C1CCC(N2Cc3ccc(CNC(=O)OCC4(F)CCC4)cc3C2=O)C(=O)N1 (stereo not drawn) [Compound 74, (1-fluorocyclobutyl)methyl N-{[2-(2,6-dioxopiperidin-3-yl)-3-oxo-2,3-dihydro-1H-isoindol-5-yl]methyl}carbamate] |
| ≤ 10 | 0.1 to 1 | C[C@H]1COC[C@@H]1OC(=O)NCc1ccc2c(c1)C(=O)N(C1CCC(=O)NC1=O)C2 (stereo partly drawn) [Compound 30, (3R,4S)-4-methyloxolan-3-yl N-{[2-(2,6-dioxopiperidin-3-yl)-3-oxo-2,3-dihydro-1H-isoindol-5-yl]methyl}carbamate] |
| 10 to 50 | 0.1 to 1 | O=C1CCC(N2Cc3ccc(CNC(=O)OCC4CCC(F)(F)C4)cc3C2=O)C(=O)N1 (stereo not drawn) [Compound 54, (3,3-difluorocyclopentyl)methyl N-{[2-(2,6-dioxopiperidin-3-yl)-3-oxo-2,3-dihydro-1H-isoindol-5-yl]methyl}carbamate] |
| 10 to 50 | ≤ 0.1 | CC(C)C1CC(COC(=O)NCc2ccc3c(c2)C(=O)N(C2CCC(=O)NC2=O)C3)C1 (stereo not drawn) [Compound 20, [3-(propan-2-yl)cyclobutyl]methyl N-{[2-(2,6-dioxopiperidin-3-yl)-3-oxo-2,3-dihydro-1H-isoindol-5-yl]methyl}carbamate] |
| 50 to 80 | ≤ 0.1 | CC1(C)CCC(OC(=O)NCc2ccc3c(c2)CN(C2CCC(=O)NC2=O)C3=O)CC1 (stereo not drawn) [Compound 15, 4,4-dimethylcyclohexyl N-{[2-(2,6-dioxopiperidin-3-yl)-1-oxo-2,3-dihydro-1H-isoindol-5-yl]methyl}carbamate] |
| 50 to 80 | ≤ 0.1 | O=C1CCC(N2Cc3ccc(CNC(=O)OC[C@@H]4C[C@@H]5C=C[C@H]4CC5)cc3C2=O)C(=O)N1 (mixture of isomers) [Compound 70, rac-[(1R,2R,4R)-bicyclo[2.2.2]oct-5-en-2-yl]methyl N-{[2-(2,6-dioxopiperidin-3-yl)-3-oxo-2,3-dihydro-1H-isoindol-5-yl]methyl}carbamate] |
| ≤ 10 | ≤ 0.1 | O=C1CCC(N2Cc3ccc(CNC(=O)OCC4OCCc5ccccc54)cc3C2=O)C(=O)N1 (stereo not drawn) [Compound 19, (3,4-dihydro-1H-2-benzopyran-1-yl)methyl N-{[2-(2,6-dioxopiperidin-3-yl)-3-oxo-2,3-dihydro-1H-isoindol-5-yl]methyl}carbamate] |
| ≤ 10 | ≤ 0.1 | O=C1CCC(N2Cc3ccc(CNC(=O)OC[C@H]4CCCO4)cc3C2=O)C(=O)N1 (stereo partly drawn) [Compound 29, [(2R)-oxolan-2-yl]methyl N-{[2-(2,6-dioxopiperidin-3-yl)-3-oxo-2,3-dihydro-1H-isoindol-5-yl]methyl}carbamate] |
